# Assay results taken from publication PMC4681141, “Antiplasmodial activity, in vivo pharmacokinetics and anti-malarial efficacy evaluation of hydroxypyridinone hybrids in a mouse model” (Malaria Journal, 2015).
# Like-named read-outs stand apart in the source and are kept apart here.
# Assays:
# [1] = parameters: method as in earlier work; settings: mice; ref 25 (Salako); cited from earlier work
# [2] = tested on: P. falciparum Dd2; assay: In vitro antiplasmodial pLDH assay, chloroquine-resistant strain Dd2; assay type: cell-based; settings: Plasmodium falciparum, read-out: IC50 against Dd2
# Description: (§1) The parasites were continuously cultured in vitro according to the method described by Trager and Jensen but with modifications. The cultures were maintained at 37 °C in O-positive (O^+) human erythrocytes in complete culture medium, which contained RPMI 1640 (Gibco-BRL Laboratories) growth medium supplemented with 25 mM 4-(2-hydroxyethyl)piperazine-1-ethanesulfonic acid (HEPES) (Sigma-Aldrich Chemical Company) buffer, 22 mM glucose (Sigma), 5 g/l albumax (Gibco-BRL Laboratories), 25 mM sodium carbonate (Sigma) and 0.3 mM hypoxanthine (Sigma). In order to control microbial contamination […] gentamicin (Sigma) was added to the culture medium, and to obtain a loosely synchronous ring stage, 5 % sterile aqueous D-sorbitol (Sigma) was used. The antiplasmodial assay was initiated with the parasites in the trophozoite stage and with a parasitaemia and haematocrit of 2 %.
# (§2) Non-parasitized erythrocytes were used as a negative control and parasitized erythrocytes, without any test compound, were used as positive control. A full day dose–response was performed for all compounds to determine the concentration inhibiting 50 % of parasite growth (IC50 value). The plates were incubated for 48 h at 37 °C in a gassing chamber containing a mixture of 5 % CO2, 3 % O2 and 92 % […]. In order to quantify parasite viability and to determine the effect of the compounds on the parasite, a parasite lactate dehydrogenase (pLDH) assay was used as described by Makler et al., but with modifications.
# [3] = tested on: Plasmodium berghei (ANKA strain); assay: In vivo anti-malarial efficacy, Peters' 4-day test; parameters: species or system C57BL/6 mice; settings: for % reduction of parasitemia Day 9: vs placebo
# Description: The chloroquine-sensitive Plasmodium berghei (ANKA strain) was used to assess in vivo anti-malarial efficacy of the test compounds. The parasites were maintained in a C57BL/6 mouse by inoculation with 250 µl of a 1:1 (v/v) suspension of erythrocytes infected with P. berghei in phosphate buffered saline (PBS). On the day of the experiment the host mouse was anaesthetized intraperitoneally with a mixture of ketamine (120 mg/kg) and xylazine (16 mg/kg). Whole blood from the host mouse was drawn by cardiac puncture into a Vacuette® heparin tube and a suspension of P. berghei parasitized erythrocytes (1 × 10^7) in PBS was prepared and the test mice were infected with 200 µl of this suspension intraperitoneally.
# Evaluation of the curative potential of the test compounds was performed using Peters’ 4-day test as described. The mice were dosed orally at 20 and 40 mg/kg and intravenously at 4 and 8 mg/kg 2 h post-infection and for three consecutive days (D0 to D3). On the first day (D0), blood samples were collected serially from each mouse at 0.5, 1, 3, and 7 h post-dosing in order to provide quantitative measurements of drug exposure which is needed for the sound interpretation of the efficacy of the anti-malarials. […] The mice were also dosed orally with PBS as a control. The parasitaemia was determined from the […] (D4) by preparing thin blood films from the tail of each mouse and the smears were fixed with methanol and stained with Giemsa. This was repeated every 2–3 days to monitor the efficacy of the test compounds. The formula used to calculate % parasitaemia and % reduction is described below, respectively. The data for % parasitaemia and % reduction of parasitaemia is presented in Table 4. %Parasitaemia =No.ofparasitizedRBCoutof500erythrocytes/Totalno.ofRBCcounted×100 %Reduction =Parasitamiaofplacebo-Parasitamiaoftestcompound/Parasitamiaofplacebo×100
# [4] = tested on: P. falciparum D10; assay: In vitro antiplasmodial pLDH assay, chloroquine-sensitive strain D10; assay type: cell-based; settings: Plasmodium falciparum, read-out: IC50 against D10
# Description: as §1, §2
# [5] = tested on: P. falciparum K1; assay: In vitro antiplasmodial pLDH assay, chloroquine-resistant strain K1; assay type: cell-based; settings: Plasmodium falciparum, read-out: IC50 against K1
# Description: as §1, §2
# [6] = tested on: P. falciparum 3D7; assay: In vitro antiplasmodial pLDH assay, chloroquine-sensitive strain 3D7; assay type: cell-based; settings: Plasmodium falciparum, read-out: IC50 against 3D7
# Description: as §1, §2
# [7] = tested on: P. falciparum chloroquine-sensitive and -resistant strains; assay type: cell-based, Plasmodium falciparum; settings: highest CQR IC50 value / lowest CQS IC50 value
# Excerpt: This value provides a quantitative measurement of the antiplasmodial activity against CQR strains relative to that against CQS strains. The higher the RI value, the higher the level of resistance.
# [8] = Drug exposure in P. berghei-infected mice (blood concentrations on D0); assay type: in vivo, C57BL/6 mice; settings: oral 20 and 40 mg/kg
# [9] = Pharmacokinetic study in uninfected C57BL/6 mice (LC-MS/MS of blood); assay type: in vivo; settings: for clearance / Vd: iv; for Vd: read-out: Vss; for AUC(0-inf) / half-life: mouse; for blood levels after oral dosing: oral 20 mg/kg, uninfected mice
# Description: A comprehensive pharmacokinetic (PK) study of compound 1 and 2 was performed on 10-week old male and female C57BL/6 mice (20–30 g) obtained from the University of Cape Town Medical School Animal Unit. The mice were housed in ventilated cages at room temperature (approximately 22 °C) with constant supply of food and water and were monitored twice daily. The study was authorized by the Faculty of Health Science Animal Research Ethics Committee before commencement: Reference No. 012/020. All the work was performed according to the guidelines established by Austin et al.. […] In each experiment a group of five animals were dosed orally (10 ml/kg) at 20 mg/kg and intravenously (5 ml/kg) via the dorsal penile vein at 4 mg/kg under anaesthesia. For oral dosage, a gavage needle was used for the administration of test compounds directly into the lower oesophagus or stomach. […] Lithium heparin-coated MiniCollect® Plasma Tubes (Lasec, South Africa) were used to collect the blood samples. The collected blood samples were placed on ice immediately after sampling, and were frozen at −80 °C until analysis. The blood samples stored at −80 °C were thawed at room temperature and then mixed by vortex to ensure homogeneity. Twenty µl of blood was mixed with 50 µl Milli-Q water (Millipore, USA) and 150 µl acetonitrile (Merck). The mixture was vortexed for 15 s, sonicated for 10 min and centrifuged at 13,000g for 5 min. The supernatant was transferred to a flat-bottomed glass insert and placed in a glass vial and placed in the autosampler for analysis. A liquid chromatography–mass spectrometry (LC/MS/MS) system was employed for the quantification of the compounds in mouse blood. The LC system employed was an ultra-fast liquid chromatography (UFLC) system (Shimadzu) and the separation of the compounds was performed on a Phenomenex, Luna 5 μm PFP (2), 100 Å, 50 mm × 2 mm analytical column. The mobile phase A consisted of 0.1 % formic acid in water (v/v) and mobile phase B consisted of acetonitrile. The flow rate was set at 500 µl/min and the temperature of the column was maintained at 40 °C. […] The detection of the compounds was performed on an AB Sciex 3200 Q-Trap mass spectrometer which was operated at unit resolution in the multiple reaction monitoring (MRM) mode. The calibration range for all the compounds was between 7.8 and 1000 ng/ml and the accuracy (% Nom) for the calibration curves was between 90.3 and 104.0 %. […] Non-compartmental analysis was performed on each individual set of data using PK Solutions 2.0 Pharmacokinetic Analysis Software (Summit Research Services, Montrose, USA). The following PK parameters were calculated: apparent terminal half-life [t½ (min)], total exposure [AUC0–α (µM min)], volume of distribution (l/kg) and plasma clearance [CL (l/min/kg)].
# [10] = Toxicity observed in dosed mice; assay type: in vivo; settings: dosed orally and intravenously
# Description: They both presented poor PK properties following oral administration. However, the LC–MS/MS assay only detected the parent compound and no assays were conducted to measure or identify any possible metabolites. The decision to perform efficacy studies was based on the possibility that compounds 1 and 2 may have high first pass effect which may cause low bioavailability. After the infected mice were dosed orally and intravenously with compound 1 and 2, the blood concentrations were measured in P. berghei-infected mice at different time intervals to measure the exposure of the infected mice to the drug. […] High toxicity was also detected when dosed orally and intravenously. The PK studies were only conducted for 9 h, and therefore the symptoms of toxicity were not severe. However, with efficacy studies the mice are dosed every day for 4 days, and this might cause distress to the mice because the toxic effect of the drug will be more severe. The efficacy study for compound 2 is not reported in this paper.
# [11] = Oral 10 mg/kg/day, 4 days (reference drug)
# [12] = chloroquine-resistant strain Dd2, 48 h, pLDH, mean of three independent experiments
# [13] = both sexes, C57BL/6, mouse, whole blood, 4 mg/kg, intravenous 4 mg/kg, uninfected C57BL/6 mice, blood
# [14] = both sexes, whole blood, intravenous 4 mg/kg, uninfected C57BL/6 mice, blood
# [15] = intravenous 4 mg/kg, uninfected C57BL/6 mice, blood, 4 mg/kg
# [16] = chloroquine-sensitive strain D10, 48 h, pLDH, mean of three independent experiments
# [17] = chloroquine-resistant strain K1, 48 h, pLDH, mean of three independent experiments
# [18] = chloroquine-sensitive strain 3D7, 48 h, pLDH, mean of three independent experiments
compound,measurement,setting,value
"CCN(CC)CCCC(C)Nc1ccnc2cc(Cl)ccc12 (stereo not drawn) [Chloroquine, reference compound]",half-life,[1],7 h
same,oral bioavailability,[1],79–90%
same,IC50,"[2]; DD2, 48 h",180 ± 10 nM
same,Average % parasitemia Day 4,[3]; [11],0%
same,Average % parasitemia Day 6,[3]; [11],0%
same,Average % parasitemia Day 9,[3]; [11],2 ± 1.6%
same,% reduction of parasitemia Day 9,[3]; [11],92.0 ± 0.4%
same,IC50,"[4]; D10, 48 h",23 nM
same,IC50,"[5]; K1, 48 h",279 ± 2 nM
same,IC50,"[6]; 3D7, 48 h",19 nM
O=c1cc(CNCCCCCCNc2ccnc3cc(Cl)ccc23)n(C2CC2)cc1OCc1ccccc1 [Compound 1],RI (resistance index),[7],10.7
same,IC50,[2]; [12],463 ± 120 nM
same,blood concentration levels in infected mice dosed orally,[8],below the detection level
same,Average % parasitemia Day 4,"[3]; IV 4 mg/kg/day, 4 days",0.4 ± 0.4%
same,Average % parasitemia Day 6,"[3]; IV 4 mg/kg/day, 4 days",1.8 ± 1.4%
same,Average % parasitemia Day 9,"[3]; IV 4 mg/kg/day, 4 days",8.1 ± 5%
same,% reduction of parasitemia Day 9,"[3]; IV 4 mg/kg/day, 4 days, 4 mg/kg/day",61.9 ± 26%
same,% reduction of parasitemia Day 9,"[3]; IV 4 mg/kg/day, 4 days, listed as compound 1, 4 mg/kg/day",62%
same,Average % parasitemia Day 4,"[3]; IV 8 mg/kg/day, 4 days",0%
same,Average % parasitemia Day 6,"[3]; IV 8 mg/kg/day, 4 days",0.9 ± 0.9%
same,Average % parasitemia Day 9,"[3]; IV 8 mg/kg/day, 4 days",5.1 ± 1.7%
same,% reduction of parasitemia Day 9,"[3]; IV 8 mg/kg/day, 4 days, 8 mg/kg/day",82.9 ± 2.5%
same,% reduction of parasitemia Day 9,"[3]; IV 8 mg/kg/day, 4 days, listed as compound 1, 8 mg/kg/day",83%
same,Average % parasitemia Day 4,"[3]; Oral 20 mg/kg/day, 4 days",5.3 ± 3.9%
same,Average % parasitemia Day 6,"[3]; Oral 20 mg/kg/day, 4 days",22.7 ± 10%
same,Average % parasitemia Day 9,"[3]; Oral 20 mg/kg/day, 4 days",24.2 ± 5.6%
same,% reduction of parasitemia Day 9,"[3]; Oral 20 mg/kg/day, 4 days",3.7 ± 5.6%
same,Average % parasitemia Day 4,"[3]; Oral 40 mg/kg/day, 4 days",5.9 ± 2%
same,Average % parasitemia Day 6,"[3]; Oral 40 mg/kg/day, 4 days",10.7 ± 5%
same,Average % parasitemia Day 9,"[3]; Oral 40 mg/kg/day, 4 days",48.6 ± 12%
same,% reduction of parasitemia Day 9,"[3]; Oral 40 mg/kg/day, 4 days",−93.8 ± 49.3%
same,parasitaemia on day 4 in mice dosed orally,"[3]; oral groups (20 and 40 mg/kg/day), day 4",~5%
same,clearance,[9]; [13],28 mL/min/kg
same,Vd,[9]; [13],20 L/kg
same,concentration at 9 h,"[9]; both sexes, C57BL/6, mouse, whole blood, intravenous 4 mg/kg, 9 h post-dosing, read-out: blood level after 9 h",160 nM
same,AUC(0-inf),[9]; [14],3.27 µM·h
same,half-life,[9]; [14],4.3 ± 1.02 h
same,CL,[9]; [15],27.6 ± 8 mL/min/kg
same,Vss,[9]; [15],20.1 ± 6 L/kg
same,oral bioavailability,"[9]; mice, oral dosing, in words",poor oral bioavailability
same,blood levels after oral dosing,[9],below the LOQ
same,IC50,[4]; [16],47 ± 10 nM
same,IC50,[5]; [17],505 ± 100 nM
same,IC50,[6]; [18],64 ± 20 nM
CCc1c(OCc2ccccc2)c(=O)ccn1CCCCCCNc1ccnc2cc(Cl)ccc12 [Compound 2],RI (resistance index),[7],2.2
same,toxicity,[10],High toxicity
same,IC50,[2]; [12],76 ± 10 nM
same,blood concentration levels in infected mice dosed orally,[8],below the detection level
same,clearance,[9]; [13],366 ± 46.6 mL/min/kg
same,Vd,[9]; [13],154.1 ± 1 L/kg
same,concentration at 2 h,"[9]; both sexes, C57BL/6, mouse, whole blood, intravenous 4 mg/kg, 2 h post-dosing, read-out: blood level after 2 h",30 nM
same,AUC(0-inf),[9]; [14],0.42 µM·h
same,half-life,[9]; [14],0.7 ± 0.2 h
same,blood levels after oral dosing,[9],below the LOQ
same,IC50,[4]; [16],122 ± 30 nM
same,IC50,[5]; [17],89 ± 10 nM
same,IC50,[6]; [18],41 ± 20 nM
